# Experimental data: a melting point compilation (Tetko et al.; mined from patent text by program, amines drawn as free bases though some values may be those of a salt)
row,Compound,melting point
1,OCC(CO)c1nc(NCc2ccccn2)c2c(-c3ccccc3)csc2n1,137 to 139 °C
2,O=C(O)CCCCCN1CCCCC1,74 to 76 °C
3,Cc1c(Br)csc1C#N,54 to 58 °C
4,CCCCCCCCCCCCCCCCCCOc1ccc(OCCCc2ccccc2)c(C(=O)N(CC(=O)OCC)CC(=O)OCC)c1,54 to 55 °C
5,Cc1noc(C)c1C(=O)Nc1ccc(-n2nccc2C)cc1,151 to 152 °C
6,O=C(c1ccc(O)cc1)c1ccc(OCCO)cc1,146 to 147 °C
7,CON=Cc1ccc2c(c1)ncn2-c1cccc(-n2ccnc2)c1,197 to 199 °C
8,CC(C)(O)C(=O)Nc1nc(-c2ccco2)c(C(=O)c2ccccc2)s1,153 to 154 °C
9,COc1cc(OC)nc(Oc2cccnc2C=O)n1,76 °C
10,CCCc1nn(C)c2c(=O)n(CCOc3ccc(NC(C)C(=O)OCC)cc3)c(CC)nc12 (stereo not drawn),100 to 104 °C
11,COc1ccc(CNc2cc(C(N)=O)c([N+](=O)[O-])cc2[N+](=O)[O-])cc1Cl,180 to 182 °C
12,CC(=O)Nc1ncc(SCC(=O)O)s1,210 °C
13,CCCCc1cn(CCCC)c(=O)n1Cc1ccc(-c2cnccc2-c2nnn[nH]2)cc1,128 to 130 °C
14,COc1cc(Cl)cc(COc2cccc(OCc3ccc4ccccc4n3)c2)c1OCC(=O)O,185 to 190 °C
15,CCC(=O)OCc1ccc2oc(=O)c(C(=O)Oc3cncc(Cl)c3)cc2c1,156 to 158 °C
16,CN(C)C=C(C1=NCCCS1)[N+](=O)[O-],168 to 170 °C
17,Cc1cc(CCCCCCCCCCc2cc(C)c(O)c(C(C)(C)C)c2)cc(C(C)(C)C)c1O,96 to 98 °C
18,CC1CC2=CC(=O)CCC2C2CCC3(C)C(O)CCC3C12 (stereo not drawn),144 to 146 °C
19,O=C(NCCO)c1cccc(-c2cccc3nn(Cc4cccc(C(F)(F)F)c4)cc23)n1,150 to 151 °C
20,CC(C)(C)C(=O)Oc1ccc(N=Nc2ccc(OC(=O)C(C)(C)C)cc2)cc1,185 to 188 °C
21,CC(=O)Nc1ccc(OC(=O)CO)cc1,144 to 146 °C
22,CNc1cc2cnnn2c(C)n1,162 to 164 °C
23,CS(=O)c1ccc(C(CC2CCCC2)C(=O)Nc2nccs2)cc1 (stereo not drawn),170 to 173 °C

row,Compound,melting point
1,[N-]=[N+]=NCc1nc2ccccc2n1Cc1ccccc1,108 to 110 °C
2,C#CCN1C(=O)C2CC3CC(C2)CC1C3,168 to 170 °C
3,CCn1c(=O)c(C(=O)NCCO)c(NCCO)c2cnc(-c3ccccc3)nc21,250 to 253 °C
4,CCNC(=O)c1ccccc1NS(=O)(=O)C(F)(F)F,85.5 to 87 °C
5,COc1ccc2cc([C@H](C)C(=O)OCC(C)(O[N+](=O)[O-])O[N+](=O)[O-])ccc2c1,67 to 68 °C
6,CCOC(=O)Cc1ccc(NC(=O)C(COc2ccccc2Cl)NS(=O)(=O)c2ccc(I)cc2)cc1 (racemic),140 to 142 °C
7,CC(=O)C=Cc1ccc2c(c1)OCO2,108 to 109 °C
8,CCCn1nc(C(N)=O)cc1CC,105 to 106 °C
9,COCCn1cnc2cc(CN3CCN(C(c4ccccc4)c4ccccc4)CC3)ccc21,162 °C
10,COc1ccccc1NC(=O)Nc1nc(Nc2ccccc2-c2ccccc2)nc(N(CC(=O)O)Cc2ccc(OC)c(OC)c2)n1,115 to 120 °C
11,O=C1OC(=O)c2c(C(F)(F)F)c3ccccc3c3cccc1c23,235 to 237 °C
12,CC1CCC2C3CC(=O)C4=CC(=O)CCC4(C)C3CCC12C (stereo not drawn),94 to 95 °C
13,CCCCOc1ccccc1-c1ncc(C(=O)OCC)c(=O)[nH]1,123 to 125 °C
14,OCCNC(=S)NC(Cc1cccc2ccccc12)=Nc1ccccc1,155 to 156 °C
15,CC(=O)CC(=O)CCCCCCCC(=O)CC(C)=O,73 to 74 °C
16,COCCn1nc(-c2sc(C(=O)NCc3ccccn3)nc2-c2ccccc2)ccc1=O,168 to 170 °C
17,COc1ccc(C(O)c2cccnc2)cn1 (stereo not drawn),129 to 130 °C
18,CC(C)(C)C(NC(=O)c1ccc(Cl)cc1)Nc1c(Nc2cccnc2Cl)c(=O)c1=O (stereo not drawn),259 to 261 °C
19,CC(C)n1cc(C(=O)O)c2ccc(F)cc21,177 to 180 °C
20,CCCCCCCCCCCCOC(=O)CS(=O)(=O)Nc1c(C(C)C)cccc1C(C)C,58 to 59 °C
21,CCOC(=O)C1=C(C)NC(C=NOC)=C(C(=O)OCC)C1c1ccccc1Cl (stereo not drawn),110 to 112 °C
22,CCOC(=O)C(=CNNc1c(Cl)cc(Cl)cc1Cl)C(=O)OCC,92 °C

# Second part, the compound after the results:
row,melting point,Compound
1,75 °C,CCOc1ccc2[nH]c(=O)n(C3CCCC3)c2c1
2,226 to 228 °C,CC(C)n1nc(-c2sc(C(N)=O)nc2-c2ccc(F)cc2)ccc1=O
3,207 to 209 °C,COc1cc(F)ccc1-c1c(/C=C/C(O)CC(=O)O)c2ccccc2c(=O)n1C(C)C (stereo not drawn)
4,118 to 120 °C,CN1CCN(C2Cc3cc(Cl)ccc3Sc3ccc(F)cc32)CC1 (stereo not drawn)
5,116 to 118 °C,COc1cc(Br)c(O)c([N+](=O)[O-])c1
6,188 to 190 °C,CCCCc1nc2c(N)nc3cccnc3c2n1CCNC(=O)C1CCCCC1
7,258 to 260 °C,Oc1c(F)cc2c(c1F)CC(n1cc[nH]c1=S)CC2 (stereo not drawn)
8,157 to 158 °C,c1ccc(-c2nc3c4ccccc4ccn3n2)cc1
9,208 to 212 °C,CC(C)N1CCN(S(=O)(=O)c2ccc(NC(=O)Nc3ccc(C(F)(F)F)cc3)cc2)CC1
10,131 to 133 °C,O=C(c1ccc(-c2ccccc2)cc1)C(Br)CC(=O)N1CCC[C@H]1C(=O)O (stereo partly drawn)
11,97 to 97.5 °C,Fc1ccc(-c2ncn(CCCN3CCOCC3)c2-c2ccnc(Cl)c2)cc1
12,130 to 133 °C,Nc1ccccc1SCn1ccccc1=O
13,290 to 291 °C,Cc1nc2c([nH]1)N(Cc1ccc(Cl)cc1)C1=NC(C)CN1C2=O (stereo not drawn)
14,> 230 °C,FC1(Cl)Oc2cc3nc(C(Cl)(Cl)Cl)[nH]c3cc2OC1(F)Cl (stereo not drawn)
15,324 to 327 °C,COc1ccc2c(c1)C(=O)c1ccc(C(=O)O)cc1S2(=O)=O
16,248 to 250 °C,O=C(O)c1ccc(COCc2csc3nc(C(=O)NCc4cccc(OC(F)(F)F)c4)[nH]c(=O)c23)cc1
17,196 to 198 °C,CC(=O)Nc1c(C(=O)c2occc2CO)[nH]c2cc(Cl)ccc12
18,170 °C,O=C(c1ccc(Cl)cc1)c1cnc2ccc(Cl)cc2c1Cl
19,90 to 95 °C,CC(=O)N1CCCC1n1nccc1-c1ccc(Oc2ccc(F)cc2)cc1 (stereo not drawn)
20,66 to 73 °C,COC(=O)c1ccc(CNC(=O)C2Cc3ccccc3N2S(=O)(=O)c2ccc(-c3ccc(F)cc3)cc2)cc1 (stereo not drawn)
21,190 to 191 °C,CCCCOc1ccc(C(=O)N[C@@H]2CCc3cccc(N4CCN(C)CC4)c3C2)cc1
22,89 to 90 °C,CCOc1nn(-c2ccc(C(F)(F)F)cn2)cc1CCCOc1cc(CCC(=O)O)n(C2CCCCC2)n1
23,158 °C,CCCC1CCC(C2CCc3c(c(F)c(F)c4cc(OCC)ccc34)O2)CC1 (stereo not drawn)
24,185 to 186 °C,COc1ccc(N2CCN(CCC3OCCc4c(C(N)=O)cccc43)CC2)cc1 (stereo not drawn)
25,138 to 139 °C,COc1c([N+](=O)[O-])cc(Br)c2c1C(=O)CC2
26,194 to 196 °C,Cc1c(C)c(N2Cc3cc(Cl)c(Cl)cc3C2)c(C)c2c1OC(C)(C)C2c1ccccc1 (stereo not drawn)
27,127 to 129 °C,CSC1C(=O)Nc2c(OCc3ccccc3)cccc21 (stereo not drawn)
28,209 to 210 °C,NC(=O)c1cc(F)c(N[C@H]2CC[C@H](N)CC2)cc1F
